Reference: US5763441A, “Compounds for the treatment of disorders related to vasculogenesis and/or angiogenesis” (Sugen, Inc., priority 1995, dated 1998)

biological target: T1, FLK-1 receptor (Mus musculus, UniProt P35918); experiment: ELISA assay to measure kinase activity of FLK-1 receptor in FLK-1/NIH cells; format: cell-based, murine; details: not given
T1 construct: expressed in transfected cells; host or cells: NIH3T3C7#3 cells (FLK-1 infected NIH3T3)
Experimental: ELISA Assay To Measure Kinase Activity Of FLK-1 Receptor In FLK-1/NIH Cells
An ELISA assay was conducted to measure the kinase activity of the FLK-1 receptor and more specifically, the inhibition or activiation of protein tyrosine kinase activity on the FLK-1 receptor.
k. NIH3T3C7#3 Cells (FLK-1 infected cells);
Protocol. The following protocol was used to conduct the ELISA Assay:
1. Coat Corning 96-well elisa plates with 1.0 ug per well Cappel Anti-rabbit IgG antibody in 0.1M Na2CO3 pH 9.6. Bring final volume to 150 ul per well. Coat plates overnight at 4° C. Plates can be kept up to two weeks when stored at 4° C.
2. Grow cells in 30 ml of Growth media 9DMEM. 2.0 mM L-Glutamine, 10% FBS) until confluent in 150 cm tissue culture dishes at 37° C., 5% CO2.
3. Harvest cells by tyrpsination and seed in Corning 25850 polystyrene 96-well roundbottom cell plates, 25.000 cells/well in 200 uL of growth media.
4. Grow cells at least one day at 37° C., 5% CO2.
5. Wash cells with D-PBS 1X.
6. Add 200 ul/well of starvation media (DMEM, 2.0 mM l-Glutamine, 0.1% FBS). Incubate overnight at 37° C., 5% CO2.
7. Dilute Compounds/Extracts 1:20 in polyproplyene 96 well plates using starvation media. Dilute dimethylsulfoxide 1:20 for use in control wells.
8. Remove starvation media from 96 well cell culture plates and add 162 ul of fresh starvation media to each well.
9. Add 18 ul of 1:20 diluted Compound/Extract dilution (from step #7) to each well plus the 1:20 dimethylsulfoxide dilution to the control wells (+/-VEGF), for a final dilution of 1:200 after cell stimulation. Final dimethylsulfoxide is 0.5%. Incubate the plate at 37° C., 5% CO2 for two hours.
10. Remove unbound antibody from Elisa plates by inverting plate to remove liquid. Wash 3 times with TBSW+0.5% Ethanolamine, pH 7.0. Pat the plate on a paper towel to remove excess liquid and bubbles.
11. Block plates with TBSW+0.5% Ethanolamine, pH 7.0. 150 ul per well. Incubate plate thirty minutes while shaking on a microtiter plate shaker.
12. Wash plate 3 times as described in step 10.
13. Add 0.5 ug/well affinity purified anti-flk-1 polyclonal rabbit antiserum. Bring final volume to 150 ul/well with TBSW+0.5k Ethanolamine pH 7.0. Incubate plate for thirty minutes while shaking.
14. Add 180 μl starvation medium to the cells and stimulate cells with 20 ul/well 10.0 mM Sodium Ortho Vanadate and 500 ng/ml VEGF (resulting in a final concentration of 1.0 mM Sodium Ortho Vanadate and 50 ng/ml VEGF per well) for eight minutes at 37° C., 5% CO2. Negative control wells receive only starvation medium.
15. After eight minutes, media are removed from the cells and washed one time with 200 ul/well PBS.
16. Lyse cells in 150 ul/well HNTG while shaking at room temperature for five minutes. HNTG formulation includes sodium ortho vanadate, sodium pyro phosphate and EDTA.
17. Wash Elisa plate three times as described in step 10.
18. Transfer cell lysates from the cell plate to elisa plate and incubate while shaking for two hours. To transfer cell lysate pipette up and down while scrapping the wells.
19. Wash plate three times as described in step 10.
20. Incubate Elisa plate with 0.02 ug/well UB40 in TBSW+05% ethanolamine. Bring final volume to 150 ul/well. Incubate while shaking for 30 minutes.
21. Wash plate three times as described in step 10.
22. Incubate elisa plate with 1:10,000 diluted EIA grade Goat anti-mouse IgG conjugated horseradish peroxidase in TBSW+0.5% ethanolamine, pH 7.0. Bring final volume to 150 ul/well. Incubate while shaking for thirty minutes.
23. Wash plate as described in step 10.
24. Add 100 ul of ABTS/H202 solution to well. Incubate ten minutes while shaking.
25. Add 100 ul of 0.2M HCL for 0.1M HCL final to stop the colordevelopment reaction. Shake 1 minute at room temperature. Remove bubbles with slow stream of air and read the ELISA plate in an ELISA plate reader at 410 nm.

T1 sequence (P35918 20-1345): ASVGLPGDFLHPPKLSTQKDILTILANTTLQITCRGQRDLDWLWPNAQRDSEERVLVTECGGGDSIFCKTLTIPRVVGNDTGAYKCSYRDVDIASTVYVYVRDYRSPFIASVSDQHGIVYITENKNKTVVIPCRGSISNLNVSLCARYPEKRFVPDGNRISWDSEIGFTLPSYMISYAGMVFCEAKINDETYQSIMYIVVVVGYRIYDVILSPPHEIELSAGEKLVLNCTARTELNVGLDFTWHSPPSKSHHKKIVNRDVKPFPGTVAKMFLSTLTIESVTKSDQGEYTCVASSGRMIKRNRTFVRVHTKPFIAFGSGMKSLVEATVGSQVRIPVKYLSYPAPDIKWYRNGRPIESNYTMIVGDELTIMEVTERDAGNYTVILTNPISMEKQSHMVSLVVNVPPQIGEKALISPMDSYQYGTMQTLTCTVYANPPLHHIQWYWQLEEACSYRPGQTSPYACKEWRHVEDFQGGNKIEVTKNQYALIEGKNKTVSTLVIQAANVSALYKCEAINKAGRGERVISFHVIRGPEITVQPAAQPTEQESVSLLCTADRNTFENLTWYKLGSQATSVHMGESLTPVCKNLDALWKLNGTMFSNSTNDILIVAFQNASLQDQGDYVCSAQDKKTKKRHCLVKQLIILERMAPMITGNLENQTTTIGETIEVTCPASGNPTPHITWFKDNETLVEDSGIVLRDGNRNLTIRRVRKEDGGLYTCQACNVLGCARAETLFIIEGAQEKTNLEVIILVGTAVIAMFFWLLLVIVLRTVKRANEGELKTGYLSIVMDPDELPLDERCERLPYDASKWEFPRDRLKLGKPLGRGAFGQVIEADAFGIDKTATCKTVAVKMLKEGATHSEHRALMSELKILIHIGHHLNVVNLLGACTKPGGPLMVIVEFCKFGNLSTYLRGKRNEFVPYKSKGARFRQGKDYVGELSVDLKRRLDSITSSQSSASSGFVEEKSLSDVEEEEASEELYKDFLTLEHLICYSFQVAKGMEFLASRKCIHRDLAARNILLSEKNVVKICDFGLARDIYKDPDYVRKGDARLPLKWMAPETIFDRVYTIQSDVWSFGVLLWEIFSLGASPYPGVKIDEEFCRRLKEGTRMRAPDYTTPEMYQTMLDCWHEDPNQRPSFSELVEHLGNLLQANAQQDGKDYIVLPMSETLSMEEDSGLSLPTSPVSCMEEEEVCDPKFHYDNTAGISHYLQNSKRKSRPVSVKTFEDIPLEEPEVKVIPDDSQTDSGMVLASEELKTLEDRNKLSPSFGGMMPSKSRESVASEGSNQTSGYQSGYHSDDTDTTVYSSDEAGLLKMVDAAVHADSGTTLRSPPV

Going from `c1ccc(-c2cnc3cc4ccccc4cc3n2)cc1` [Compound 23, 2-phenyl-1,4-diaza-anthracene] to `Cc1cc2ncc(-c3ccc(O)c(O)c3)nc2cc1C` [Compound 14, 2-(3,4-dihydroxyphenyl) -6,7-dimethylquinoxaline], the IC50 rises from 4.4 µM to 9.3 µM (2.1-fold).

`Cc1cc2ncc(Nc3ccc(Cl)c(Cl)c3)nc2cc1C` [Compound 17, 2-(3,4-dichlorophenylamino)-6,7-dimethylquinoxaline] and `Cc1cc2ncc(Nc3cccc(Cl)c3)nc2cc1C` [Compound 28, 2-(3-chlorophenylamino)-6,7-dimethylquinoxaline] are within 1.5-fold of each other in IC50: 15 µM for the first, 16 µM for the second.

Going from `N#CCS(=O)(=O)/C(C#N)=C/c1cc(O)c(O)c(Br)c1` [Compound 26, (E)-2-cyanomethylsufonyl-3-(3-bromo-4,5-dihydroxyphenyl)acrylonitrile] to `N#C/C(=C\c1cc(O)c(O)c(Br)c1)S(=O)(=O)/C(C#N)=C/c1cc(O)c(O)c(Br)c1` [Compound 12, (E)-2-[1-cyano-2-(5-bromo-3,4-dihydroxyphenyl)ethenylsulfonyl]-3-(3-bromo-4,5-dihydroxyphenyl)acrylonitrile], the IC50 falls from 11 µM to 7.1 µM (1.5-fold).

First: N#CC(C(=O)Nc1cccc(C(F)(F)F)c1)C(=S)Nc1ccccc1Cl (stereo not drawn) [Compound 25, N-(2-chlorophenyl)-2-cyano-2-(N-3-trifluorophenylamino-carbonyl)-thioacetamide]
Second: Oc1cccc(Nc2ncnc3ccccc23)c1 [Compound 18, 4-(3-hydroxyphenylamino)-quinazoline]
The IC50 of the first is 4.1-fold lower: 8.5 µM for the first, 34.6 µM for the second. The first is the more potent here.

Compared with `Cc1cc2ncc(Nc3ccc(I)cc3)nc2cc1C` [Compound 13, 2-[(4-iodophenyl)amino]-6,7-dimethyl quinoxaline], `Cc1ccc2ncnc(Nc3cccc(O)c3)c2c1` [Compound 16, 4-(3-hydroxyphenylamino)-6-methylquinazoline] is 3.4-fold higher in IC50: 10.4 µM for the first, 35.1 µM for the second.

Going from `N#CC(C#N)=NNc1cccc(Cl)c1` [Compound 22] to `COc1cc2nc(Cl)nc(Nc3cccc(Cl)c3)c2cc1OC` [Compound 21, 2-chloro-4-(3-chlorophenylamino)-6,7-dimethoxyquinazoline], the IC50 rises from 2.3 µM to 9.9 µM (4.3-fold). The first is the more potent here.

Compared with `CC1c2nc3ccccc3c(=O)n2C(c2ccc(O)cc2)N1Cc1ccccc1` (stereo not drawn) [Compound 27], `N#C/C(=C\c1cc(O)c(O)c(I)c1)C(=O)NCc1ccccc1` [Compound 6, (E)-2-(benzylaminocarbonyl)-3-(3-iodo-4,5-dihydroxyphenyl)acrylonitrile] is 6.2-fold higher in IC50: 3.4 µM for the first, 21.2 µM for the second. The first is the more potent here.

Going from `N#C/C(=C\c1ccc2[nH]ccc2c1)C(=O)c1ccc(O)c(O)c1` [Compound 10, (E)-3-(indol-5-yl)-2-(3,4-dihydroxyphenylcarbonyl)acrylonitrile] to `N#C/C(=C\c1ccc(O)c(O)c1)C(=O)NCCCCNC(=O)/C(C#N)=C/c1ccc(O)c(O)c1` [Compound 8, (E,E)-2-[[4-[[1-cyano-2-(3,4-dihydroxyphenyl)ethenyl]carbonylamino]-n-butyl]aminocarbonyl]-3-(3,4-dihydroxyphenyl)acrylonitrile], the IC50 falls from 17.7 µM to 10.8 µM (1.6-fold). The second is the more potent here.

Compared with `CCCNc1nc2ccccc2nc1Cl` [Compound 19, 2-(n-propylamino)-3-chloroquinoxaline], `CC(C)c1cc(/C=C(\C#N)C(=S)NCCCc2ccccc2)cc(C(C)C)c1O` [Compound 11, (E)-2-[3-phenyl-n-propylaminothiocarbonyl]-3-(3,5-diisopropyl-4-hydroxyphenyl)acrylonitrile] is 2.6-fold lower in IC50: 25.6 µM for the first, 9.8 µM for the second. The second is the more potent here.

Compared with `COC(=O)c1ccc(NCc2cc(O)ccc2O)cc1` [Compound 24, N-(2,5-dihydroxylbenzyl)-4-methoxycarbonylaniline], `Cc1ccc(Sc2ncnc3ccc(C)cc23)cc1` [Compound 20] is 1.6-fold lower in IC50: 28.9 µM for the first, 17.8 µM for the second. The second is the more potent here.

`CC(C)(C)c1cc(/C=C(/C#N)c2[nH]nc(N)c2C#N)cc(C(C)(C)C)c1O` [Compound 4, (E)-2-[(3-amino-4-cyano)pyrazo-5-yl]-3-(3,5-di-t-butyl-4-hydroxyphenyl)acrylonitrile] gave an IC50 of 8.9 µM.

same assay, conditions: FLK-1R ELISA, VEGF-stimulated FLK-1/NIH cells

First: N#C/C(=C\c1cc(O)c(O)c(I)c1)C(=O)NCCCc1ccccc1 [Compound 3]
Second: N#C/C(=C\c1ccc(O)c(O)c1)C(=O)NCCNC(=O)/C(C#N)=C/c1ccc(O)c(O)c1 [Compound 7]
The IC50 of the first is 7.7-fold lower: 4.9 µM for the first, 37.5 µM for the second. The first is the more potent here.

In the case of `N#C/C(=C\c1ccc(O)c(O)c1)S(=O)(=O)/C(C#N)=C/c1ccc(O)c(O)c1` [Compound 9], the IC50 is reported as 27.4 µM.

same assay, conditions: FLK-1R ELISA, VEGF-stimulated FLK-1/NIH cells; read-out: IC50

For `CC(C)(C)c1cc(/C=C(\C#N)C(N)=S)cc(C(C)(C)C)c1O` [Compound 1, (E)-2-aminothiocarbonyl-3 (3,5-di-t-butyl-4-hydroxyphenyl)acrylonitrile], the IC50 was 0.8 µM.

system: Calu-6; experiment: Tumor xenograft growth inhibition, Calu-6 (lung); format: in vivo, human; details: 20 mg/kg/day
Description: The ability of one of the compounds of the present invention, leflunomide (Compound 40), to inhibit ovarian, melanoma, prostate, lung and mammary tumor cell lines established as SC xenografts was examined. […]
The tumor cells were implanted subcutaneously into the indicated strains of mice. Treatment was initiated on day 1 post implantation unless otherwise indicated (e.g. treatment of the SCID mouse related to the A375 melanoma cell line began on Day 9). Eight (8) to ten (10) mice comprised each test group.
Animals. Female athymic mice (BALB/c, nu/nu), BALB/c mice, Wistar rats and Fisher 344 rats were obtained from Simonsen Laboratories (Gilroy, Calif.). Female A/I mice were obtained from Jackson Laboratory (Bar Harbor, Me.). DA rats were obtained from B&K Universal, Inc. (Fremont, Calif.). Athymic R/Nu rats, DBA/2N mice, and BALB/c mice were obtained from Harlan Sprague Dawley (Indianapolis, Ind.). Female C57BL/6 mice were obtained from Taconic (Germantown, N.Y.). All animals were maintained under clean-room conditions in Micro-isolator cages with Alpha-dri bedding. They received sterile rodent chow and water ad libitum.
Subcutaneous Xenograft Model. Cell lines were grown in appropriate medium as described (See Section 6). Cells were harvested at or near confluency with 0.05% Trypsin-EDTA and pelleted at 450×g for 10 min. Pellets were resuspended in sterile PBS or media (without FBS) to a suitable concentration indicated in the Figure legends and the cells were implanted into the hindflank of mice. Tumor growth was measured over 3 to 6 weeks using venier calipers tumor volumes were calculated as a product of length x width x height unless otherwise indicated. P values were calculated using the Students' t-test. su101 in 50-100 uL excipient (dimethylsulfoxide, PBTE, PBTE6C:D5W, or PBTE:D5W) was delivered by IP injection at concentrations indicated in the Figure legends.

For `c1ccc(-c2cnc3cc4ccccc4cc3n2)cc1` [Compound 23, 2-phenyl-1,4-diaza-anthracene], the “inhibition, CALU-6” value was 41%.

In the case of `N#CC(C#N)=Cc1cc(O)c(O)c(I)c1` [Compound 2, (E)-2-cyano-3-(3-iodo-4,5-hydroxyphenyl)acrylonitrile], the “inhibition, CALU-6 (in words)” value is reported as “no detectable inhibition”.
For `N#C/C(=C\c1cc(O)c(O)c(Br)c1)S(=O)(=O)/C(C#N)=C/c1cc(O)c(O)c(Br)c1` [Compound 12, (E)-2-[1-cyano-2-(5-bromo-3,4-dihydroxyphenyl)ethenylsulfonyl]-3-(3-bromo-4,5-dihydroxyphenyl)acrylonitrile], the “inhibition, CALU-6 (in words)” value was “no detectable inhibition”.
`CC(C)(C)c1cc(/C=C(/C#N)c2[nH]nc(N)c2C#N)cc(C(C)(C)C)c1O` [Compound 4, (E)-2-[(3-amino-4-cyano)pyrazo-5-yl]-3-(3,5-di-t-butyl-4-hydroxyphenyl)acrylonitrile] was tested, and the “inhibition, CALU-6 (in words)” value was “no significant inhibition”.

same assay, conditions: 40 mg/kg/day

`N#CC(C#N)=Cc1cc(O)c(O)c(I)c1` [Compound 2, (E)-2-cyano-3-(3-iodo-4,5-hydroxyphenyl)acrylonitrile] was tested, and the “inhibition, CALU-6 (in words)” value was “no detectable inhibition”.
